We go through 4 molecules from patent US20160199371A1, “PHARMACEUTICAL COMPOSITION HAVING PYRIMIDINE COMPOUND AS ACTIVE INGREDIENT” (ASTELLAS PHARMA INC, priority 2013, published 2016).

Experiment [1] addresses T1, human recombinant FGFR4 (Homo sapiens, UniProt P22455).
T1 construct: purchased CARNA BIOSCIENCES; Inc. 08CBS-0716C
The experiment can be described thus: FGFR4 enzyme assay. The note with it: test compound 10 nM; read-out: FGFR4 Kinase Activity Inhibitory Rate. Format: biochemical. As to the method:
The outline of the measurement method is shown below.
Into a well of a 384-well plate,
(1) 4 μL of a compound solution was added,
(2) 2 μL of an FGFR4 enzyme (3 ng/μL) diluted with a reaction buffer was added,
(4) the mixture was allowed to undergo a reaction at room temperature for 30 minutes (concentration of the test compound species during assay of 10 nM).
(5) 15 μL/well of a 20 mM EDTA solution was added thereto to stop the reaction, and then in a LabChip EZ Reader (Perkin Elmer), the amount of a phosphorylated substrate peptide produced by the kinase reaction of FGFR4 was measured.

For experiment [2], the system named is HuH-7 cell. The experiment can be described thus: Growth assay of FGF19 gene amplification-positive liver cancer cell (HuH-7). Format: cell-based. The note with it: Homo sapiens, Huh-7, 120 h; test compound 37 nM, 5 days; read-out: HuH-7 Cell Growth Inhibitory Rate. As to the method: After 5 days from the addition of the test compound solution, the number of HuH-7 cells were measured with ARVO×3 (Perkin Elmer) using a CellTiter-Glo Luminescent Cell Viability Assay (Promega). […] That is, the inhibitory rate was calculated by <the growth inhibitory rate (%)>=<1−(the measured value of the well to which the test compound was added>−<the measured value of the well to which the cells were not added (only medium present)>)/{<the measured value of the well to which the test compound was not added (only DMSO was added)>−<the measured value of the well to which the cells were not added (only medium present)}]×100.

For experiment [3], the system named is FGF19 gene amplification-positive liver cancer cell (HuH-7). The experiment can be described thus: Antitumor test using mouse model subcutaneously transplanted with HuH-7 cells. Format: in vivo, nude mice. The note with it: 1 mg/kg/day oral once daily. As to the method:
HuH-7 cells at 3×10^6 cells/0.1 mL (solution suspended in PBS and Matrigel at 1:1) was subcutaneously transplanted to nude mice (CanN.Cg-Foxn1 nu/CrlCrlj(nu/nu): Charles River Laboratories Japan, Inc., male, 4-5 week old). After about 3 weeks after the transplantation, the mice were grouped according to the tumor volumes and body weights. […] The test compound was made into a suspension using a 0.5% aqueous methyl cellulose solution and orally administered once a day daily. […] For the tumor volume, a short diameter and long diameter were measured using a calipers, and the tumor volume was calculated by (tumor volume mm^3)=(short diameter mm×short diameter mm×long diameter mm)/2. […] The tumor growth inhibitory rate of test compound was calculated by <the tumor growth inhibitory rate (%)>=<1−(increase in the tumor volume of the test compound-administered group/increase in the tumor volumes of the control group)>×100. The increase in the tumor volume was calculated by (increase in the tumor volume)=(the tumor volume on the final day of each group)−(the tumor volume on the 0th day of each group).

Experiment [4] concerns surgically unresectable liver cancer. The settings on record: extension from 7.9 months; N Engl J Med. 2008; cited from earlier work.

T1 sequence (P22455 22-802): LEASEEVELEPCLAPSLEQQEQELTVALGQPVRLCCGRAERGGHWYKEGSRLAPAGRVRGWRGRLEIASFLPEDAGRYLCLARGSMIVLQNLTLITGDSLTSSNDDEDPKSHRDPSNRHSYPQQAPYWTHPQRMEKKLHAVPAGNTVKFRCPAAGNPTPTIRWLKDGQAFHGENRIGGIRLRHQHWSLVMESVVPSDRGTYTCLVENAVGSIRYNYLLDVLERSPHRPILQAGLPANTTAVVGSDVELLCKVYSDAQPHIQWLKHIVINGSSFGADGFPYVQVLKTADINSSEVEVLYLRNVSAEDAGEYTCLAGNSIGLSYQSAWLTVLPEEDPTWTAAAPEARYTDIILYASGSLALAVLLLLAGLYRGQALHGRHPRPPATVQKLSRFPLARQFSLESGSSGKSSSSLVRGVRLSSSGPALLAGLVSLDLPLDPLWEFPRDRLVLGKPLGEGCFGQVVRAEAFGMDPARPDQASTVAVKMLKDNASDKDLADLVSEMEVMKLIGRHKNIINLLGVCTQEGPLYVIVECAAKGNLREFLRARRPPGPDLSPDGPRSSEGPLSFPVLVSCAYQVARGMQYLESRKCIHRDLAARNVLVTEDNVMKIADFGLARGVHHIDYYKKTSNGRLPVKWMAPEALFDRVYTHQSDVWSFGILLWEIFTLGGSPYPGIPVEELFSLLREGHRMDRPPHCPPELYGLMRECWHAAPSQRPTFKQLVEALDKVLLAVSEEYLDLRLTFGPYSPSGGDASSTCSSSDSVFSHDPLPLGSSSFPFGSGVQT

Consider `COc1cc(Nc2ncc(OCc3c(F)c(OC)cc(OC)c3F)cn2)ccc1N1CCC(N2CCN(C)CC2)CC1` [Compound A, 5-[(2,6-difluoro-3,5-dimethoxybenzyl)oxy]-N-{3-methoxy-4-[4-(4-methylpiperazin-1-yl)piperidin-1-yl]phenyl}pyrimidin-2-amine], for which the inhibition at 0.01 µM in experiment [1] came out at 78%. In experiment [2], the inhibition at 0.037 µM turned out to be 53%. Moreover, the “Tumor growth inhibitory rate” value in experiment [3] (final day 10th day) turned out to be 80%.

For `COc1cc(OC)c(F)c(COc2cnc(Nc3ccc(N4CCN(C)CC4)cc3)nc2)c1F` [Compound D, 5-[(2,6-difluoro-3,5-dimethoxybenzyl)oxy]-N-[4-(4-methylpiperazin-1-yl)phenyl]pyrimidin-2-amine], the inhibition at 0.01 µM in experiment [1] was 82%. In addition, the inhibition at 0.037 µM in experiment [2] is 65%. Further, the “Tumor growth inhibitory rate” value in experiment [3] (final day 10th day) is 67%.

Regarding `COc1cc(OC)c(F)c(COc2cnc(Nc3cc(CN4CCN(C)CC4)n(C)n3)nc2)c1F` [Compound E, 5-[(2,6-difluoro-3,5-dimethoxybenzyl)oxy]-N-{1-methyl-5-[(4-methylpiperazin-1-yl)methyl]-1H-pyrazol-3-yl}pyrimidin-2-amine], the inhibition at 0.01 µM in experiment [1] was 31%. Further, the inhibition at 0.037 µM in experiment [2] is 11%. Besides, the “Tumor growth inhibitory rate” value in experiment [3] (final day 9th day) is on record as 44%.

On to `CNC(=O)c1cc(Oc2ccc(NC(=O)Nc3ccc(Cl)c(C(F)(F)F)c3)cc2)ccn1` [sorafenib], for which, in experiment [4], the survival was 10.7 months.
